Measurements reported in patent US10086034B2, “Compositions and methods for inducing urinary voiding and defecation” (Dignify Therapeutics, LLC, priority 2013, dated 2018).
Entries after “also recorded” stand apart in the source; their conditions may differ. Where no end group is shown, it is not given here. [ ]: non-standard residue; d: D form. βAla = NCCC(=O)O

Legend:
Beagle dogs = test: Adverse events after a high i.v. dose of NK2R agonist in beagle dogs; format: in vivo; conditions: 150 ug/kg intravenous, stated in Example 10 (present tense methods)
Method: General: Beagle dogs (6-11 kg, purpose-bred and experimentally naïve) are housed at an AAALAC approved facility in cages (1/cage) with access to water and food. A butterfly intravenous catheter is inserted into a vein (e.g. radial or saphenous). All animal activities are performed in compliance with USDA guidelines. Animals are monitored for 5 days prior to dosing to ensure adequate health.
Treatments and Dosing: Animals are administered a dose of an NK2R agonist that produces observed adverse events. […] Adverse events are commonly quantified by measuring the number of events and the duration of each event occurring during “1 minute time bins” after NK2R agonist administration to create a time histogram of events. When voiding has stopped, a NK2R antagonist is administered intravenously. Efficacy of the NK2R antagonist is obtained by measuring the reduction in the number and duration of adverse events.

[1] = system: bladder of anesthetized acutely spinalized female rats; test: Bladder contractility: isovolumetric bladder pressure recording in anesthetized acutely spinalized rats; format: in vivo, Sprague Dawley rats; conditions: for effect of antagonist pre-administration on DTI-100 induced increase in bladder pressure: antagonist 1 mg/kg, DTI-100 10 μg/kg i.v., paired t-test, N=4; for bladder pressure (peak pressure response): increasing i.v. doses, acutely spinalized anesthetized female rats
Method: (§1) General: In vivo studies were performed in anesthetized, acutely spinalized (T9-10 level) rats (N=37) or spinally intact (N=3) rats. Adult female Sprague Dawley rats (Charles River, N.C.; 250-300 g) were housed at an AAALAC approved facility in cages (3/cage) with free access to water and food in a colony room that was maintained on a 12 hr/12 hr light/dark cycle 1-2 weeks before the experiment. Rats were anesthetized with urethane (1.2-1.4 g/kg subcutaneous injection). Surgical procedures were then performed with the addition of isoflurane anesthesia (0.05-1.5% in O2) as the full anesthetic effect of urethane takes about 1-2 hrs.
A catheter filled with heparinized saline (50 unit/ml) was inserted into the carotid artery and connected to a pressure transducer for measurement of blood pressure and heart rate. A catheter was inserted into the jugular vein for intravenous (i.v.) administration of drugs. In order to transect the spinal cord, the skin and muscle on the dorsal side at the level of the lower thoracic vertebrae were incised, and the spinal cord was carefully exposed by a laminectomy and transected at the T8-T10 spinal level. Gelfoam was placed at the incision site and the muscle and skin overlying the vertebrae were closed with wound clips. The spinal cord was cut at least 60 min before starting the experimental protocol.
Bladder Contractility: For isovolumetric recordings of bladder pressure a saline-filled polyethylene tubing with a flared tip (PE 50®) catheter was inserted into the bladder and secured in place at the dome. This catheter was used to slowly infuse saline (0.2-0.3 ml/min by an infusion pump (PHD2000 infusion, Harvard Apparatus, Holliston, Mass.) to determine the bladder capacity. The bladder capacity was determined as the volume necessary to fill the bladder to the leak point pressure (i.e. volume required to produce voiding). The bladder was then emptied, the external urethra occluded and the bladder filled to 70% capacity. This method produced a stable baseline pressure in which drug induced changes in bladder contractility could be measured. Peak pressure responses, time to peak, and time to return to near baseline values (within 5 mmHg of baseline; i.e. duration of action) after vehicle and drug administration were measured.
Dosing: Responses to saline i.v. were given to ensure stable baseline pressures and lack of response to saline (vehicle control for DTI-100) at the start of each protocol and periodical throughout the experiment. DTI-100 was given in dose range of 0.01-100 μg/kg. The NK1R antagonist, Spantide I (solubilized in saline) and NK2R antagonist GR159897 (solubilized at 50 mM in DMSO and then diluted in saline) were given at a 1 mg/kg dose. Neurokinin A (NKA) and (betaAla8)NKA(4-10) were given at doses 1-100 μg/kg. Additional routes of drug administration explored included, intramuscular, subcutaneous, and sublingual. [Lys5,MeLeu9,Nle10]-NKA(4-10) (SEQ ID NO: 1) or “DTI-100”, Spantide I, GR159897, Neurokinin A, and (BetaAla8)NKA(4-10) were obtained from TOCRIS R&D SYSTEMS, Inc. (Minneapolis, Minn.).
Data analysis: Data were examined qualitatively and quantitatively. The mean, standard deviation and standard error of the mean were calculated using MICROSOFT EXCEL. One way ANOVA tests were performed with PRISM 5 for WINDOWS (Graphpad Software, Inc., La Jolla, Calif.) and unpaired and paired t-tests were performed in EXCEL. P<0.05 was considered as statistically significant.

[2] = system: colorectum of anesthetized acutely spinalized female rats; test: Colorectal contractility: balloon catheter colorectal pressure in anesthetized rats; format: in vivo, Sprague Dawley rats; conditions: antagonist 1 mg/kg i.v.; DTI-100 10 μg/kg given 5 min later
Method: as §1, with “hrs. […]” for “hrs.”
Colorectal Contractility: Colorectal pressures were measured via a latex balloon catheter (length 3-5 cm) inserted (˜4 cm) into the distal rectal/colon region. […] This allowed drug induced changes in colorectal pressure to be monitored. Parameters measured include peak colorectal pressure response, duration of time above baseline activity (in the 1st 5 min after drug administration), area under the curve (measured during the 1st 5 min after drug administration) and the number of contractile events after vehicle and drug administration. […]
Data analysis: Data were examined qualitatively and quantitatively. The mean, standard deviation and standard error of the mean were calculated using MICROSOFT EXCEL. […]

Compound	effect of antagonist pre-administration on DTI-100 induced increase in bladder pressure [1]	effect of antagonist pre-administration on DTI-100 induced increase in colorectal activity [2]	bladder pressure (peak pressure response) [1]	also measured
CCCC[C@H](NC(=O)[C@H](CC(C)C)N(C)C(=O)CNC(=O)[C@@H](NC(=O)[C@H](Cc1ccccc1)NC(=O)[C@H](CCCCN)NC(=O)[C@@H](N)CC(=O)O)C(C)C)C(N)=O [DTI-100, [Lys5,MeLeu9,Nle10]-NKA(4-10)]	–	–	–	duration of adverse events (Beagle dogs): approximately 15 minutes; adverse events observed (Beagle dogs; within minutes after voiding and defecation): retching, emesis, panting, and vocalization
Spantide I	did not reduce the effect of DTI-100 on bladder pressure; also recorded: the same before (Before) and after (After) administration	did not reduce the effect of DTI-100 on colorectal activity	–	–
Asp-Ser-Phe-Val-β-Ala-Leu-Met-NH2 (DSFV[βAla]LM-NH2) [(betaAla8)NKA(4-10), peptide agonist for NK2R]	–	–	produce increases in bladder pressure	–
His-Lys-Thr-Asp-Ser-Phe-Val-Gly-Leu-Met-NH2 (HKTDSFVGLM-NH2) [NKA, neuropeptide neurokininA, peptide agonist for NK2R]	–	–	produce increases in bladder pressure	time to peak bladder pressure response ([1]; i.v., all doses studied): ≤ 60 s; bladder pressure ([1]; intramuscular, subcutaneous and sublingual injections, DTI-100 10-100 μg/kg, NKA 5-100 μg/kg): showed an increase in bladder pressure
COC1(C[S@@+]([O-])c2ccccc2)CCN(CCc2c[nH]c3ccc(F)cc23)CC1 [GR159897]	significantly blocked the bladder pressure increase to DTI-100	significantly blocked the bladder pressure increase produced by DTI-100	–	–
